Assay results published in patent publication US20250332178A1, “METHODS OF TREATING MYCOBACTERIAL INFECTIONS USING TETRACYCLINE COMPOUNDS” (priority 2018, published 2025).
In brackets after ≈: the same amount, converted by molar mass. Where two headings read alike, the source gives them in different places.

Tested on: H37Rv strain of Mycobacterium tuberculosis
Assay: MIC against H37Rv strain
Format: cell-based
Conditions: Mycobacterium tuberculosis, H37RV
Method: The purpose of this study was to test activity of selected tetracycline compounds against the H37Rv strain of Mycobacterium tuberculosis. Minimum inhibitory concentrations (MIC) of different tetracycline compounds against H37Rv strain were determined and are shown in Table 8.

| Structure (SMILES) | MIC (read-out: MIC) | MIC |
| --- | --- | --- |
| CN(C)c1cc(CNCC2CCSCC2)c(O)c2c1C[C@H]1C[C@H]3C(N(C)C)C(O)=C(C(N)=O)C(=O)[C@@]3(O)C(O)=C1C2=O (stereo partly shown) [Compound 50] | > 32 µg/mL | – |
| CC(N)CNCc1cc(N(C)C)c2c(c1O)C(=O)C1=C(O)[C@]3(O)C(=O)C(C(N)=O)=C(O)C(N(C)C)[C@@H]3C[C@@H]1C2 (stereo partly shown) [Compound 51] | > 32 µg/mL | – |
| CN(C)c1cc(CNC(=O)c2ccno2)c(O)c2c1C[C@H]1C[C@H]3C(N(C)C)C(O)=C(C(N)=O)C(=O)[C@@]3(O)C(O)=C1C2=O (stereo partly shown) [Compound 52] | 16 µg/mL (≈ 27.5 µM) | – |
| CCC(C)CNCc1cc(N(C)C)c2c(c1O)C(=O)C1=C(O)[C@]3(O)C(=O)C(C(N)=O)=C(O)[C@@H](N(C)C)[C@@H]3C[C@@H]1C2 (stereo partly shown) [Compound 53] | 16 µg/mL (≈ 28.7 µM) | – |
| CN(C)c1cc(CNCc2cc[n+]([O-])cc2)c(O)c2c1C[C@H]1C[C@H]3[C@H](N(C)C)C(O)=C(C(N)=O)C(=O)[C@@]3(O)C(O)=C1C2=O [Compound 54] | 32 µg/mL (≈ 53.9 µM) | – |
| CN(C)c1cc(CN(Cc2ccn[nH]2)Cc2ccn[nH]2)c(O)c2c1C[C@H]1C[C@H]3[C@H](N(C)C)C(O)=C(C(N)=O)C(=O)[C@@]3(O)C(O)=C1C2=O [Compound 55] | > 32 µg/mL | – |
| CN(C)c1cc(CN2CCCCC2)c(O)c2c1C[C@H]1C[C@H]3[C@H](N(C)C)C(O)=C(C(N)=O)C(=O)[C@@]3(O)C(O)=C1C2=O [Compound 56] | 16 µg/mL (≈ 28.8 µM) | – |
| CN(C)c1cc(CNCC2CCCCC2)c(O)c2c1C[C@H]1C[C@H]3[C@H](N(C)C)C(O)=C(C(N)=O)C(=O)[C@@]3(O)C(O)=C1C2=O [Compound 57] | 32 µg/mL (≈ 54.9 µM) | – |
| CN(C)c1cc(CNC(=O)C2CCCN2)c(O)c2c1C[C@H]1C[C@H]3C(N(C)C)C(O)=C(C(N)=O)C(=O)[C@@]3(O)C(O)=C1C2=O (stereo partly shown) [Compound 58] | 16 µg/mL (≈ 27.4 µM) | – |
| CN(C)c1cc(CNC(=O)C2(N)CC2)c(O)c2c1C[C@H]1C[C@H]3[C@H](N(C)C)C(O)=C(C(N)=O)C(=O)[C@@]3(O)C(O)=C1C2=O [Compound 59] | 16 µg/mL (≈ 28.1 µM) | – |
| CN(C)CC(=O)NCc1cc(N(C)C)c2c(c1O)C(=O)C1=C(O)[C@]3(O)C(=O)C(C(N)=O)=C(O)C(N(C)C)[C@@H]3C[C@@H]1C2 (stereo partly shown) [Compound 60] | 16 µg/mL (≈ 28 µM) | – |
| CN(C)c1cc(CNC(N)=S)c(O)c2c1C[C@H]1C[C@H]3[C@H](N(C)C)C(O)=C(C(N)=O)C(=O)[C@@]3(O)C(O)=C1C2=O [Compound 61] | > 32 µg/mL | – |
| Cc1csc(NCc2cc(N(C)C)c3c(c2O)C(=O)C2=C(O)[C@]4(O)C(=O)C(C(N)=O)=C(O)C(N(C)C)[C@@H]4C[C@@H]2C3)n1 (stereo partly shown) [Compound 62] | > 32 µg/mL | – |
| CCOC(=O)c1csc(NCc2cc(N(C)C)c3c(c2O)C(=O)C2=C(O)[C@]4(O)C(=O)C(C(N)=O)=C(O)C(N(C)C)[C@@H]4C[C@@H]2C3)n1 (stereo partly shown) [Compound 63] | > 32 µg/mL | – |
| CN(C)C1C(O)=C(C(N)=O)C(=O)[C@@]2(O)C(O)=C3C(=O)c4c(O)c(CNCC(C)(C)C)cc(CNCC(C)(C)C)c4C[C@H]3C[C@@H]12 (stereo partly shown) [Compound 64] | 32 µg/mL (≈ 52.2 µM) | – |
| CN(C)c1cc(CNCC2CC2)c(O)c2c1C[C@H]1C[C@H]3[C@H](N(C)C)C(O)=C(C(N)=O)C(=O)[C@@]3(O)C(O)=C1C2=O [Compound 65] | 16 µg/mL (≈ 29.6 µM) | – |
| CN(C)c1cc(CNCc2ccccc2)c(O)c2c1C[C@H]1C[C@H]3[C@H](N(C)C)C(O)=C(C(N)=O)C(=O)[C@@]3(O)C(O)=C1C2=O [Compound 66] | > 32 µg/mL | – |

| Structure (SMILES) | MIC (read-out: MIC) | MIC |
| --- | --- | --- |
| Cc1noc(C)c1S(=O)(=O)NCc1cc(N(C)C)c2c(c1O)C(=O)C1=C(O)[C@]3(O)C(=O)C(C(N)=O)=C(O)[C@@H](N(C)C)[C@@H]3C[C@@H]1C2 [Compound 67] | > 32 µg/mL | – |
| CN(C)[C@@H]1C(O)=C(C(N)=O)C(=O)[C@@]2(O)C(O)=C3C(=O)c4c(ccc(CNCC(C)(C)C)c4O)C[C@H]3C[C@@H]12 [Compound 68] | > 32 µg/mL | – |
| CN(C)c1cc(Cn2ccc(C=O)c2)c(O)c2c1C[C@H]1C[C@H]3[C@H](N(C)C)C(O)=C(C(N)=O)C(=O)[C@@]3(O)C(O)=C1C2=O [Compound 69] | > 32 µg/mL | – |
| CC(C)CNCc1cc(N(C)C)c2c(c1O)C(=O)C1=C(O)[C@]3(O)C(=O)C(C(N)=O)=C(O)[C@H](N(C)C)[C@@H]3C[C@@H]1C2 [Compound 70] | 16 µg/mL (≈ 29.5 µM) | – |
| CN(C)c1cc(CNC(=O)[C@@H]2CCCN2C)c(O)c2c1C[C@H]1C[C@H]3[C@@H](N(C)C)C(O)=C(C(N)=O)C(=O)[C@@]3(O)C(O)=C1C2=O [Compound 71] | 16 µg/mL (≈ 26.8 µM) | – |
| C[C@H]1c2ccc(CN3CCCCC3)c(O)c2C(=O)C2=C(O)[C@]3(O)C(=O)C(C(N)=O)=C(O)[C@@H](N(C)C)[C@@H]3[C@@H](O)[C@@H]21 [Compound 72] | 32 µg/mL (≈ 59.1 µM) | – |
| CN(C)[C@H]1C(O)=C(C(N)=O)C(=O)[C@@]2(O)C(O)=C3C(=O)c4c(O)c(CNCC(C)(C)C)cc(-c5ccoc5)c4C[C@H]3C[C@@H]12 [Compound 73] | > 32 µg/mL | – |
| CC(NCc1cc(N(C)C)c2c(c1O)C(=O)C1=C(O)[C@]3(O)C(=O)C(C(N)=O)=C(O)C(N(C)C)[C@@H]3C[C@@H]1C2)C(F)(F)F (stereo partly shown) [Compound 74] | > 32 µg/mL | – |
| CN(C)c1cc(CNc2nc(-c3ccc(F)cc3)cs2)c(O)c2c1C[C@H]1C[C@H]3C(N(C)C)C(O)=C(C(N)=O)C(=O)[C@@]3(O)C(O)=C1C2=O (stereo partly shown) [Compound 75] | > 32 µg/mL | – |
| CN(C)c1cc(CNc2nc(C(F)(F)F)cs2)c(O)c2c1C[C@H]1C[C@H]3C(N(C)C)C(O)=C(C(N)=O)C(=O)[C@@]3(O)C(O)=C1C2=O (stereo partly shown) [Compound 76] | > 32 µg/mL | – |
| CN(C)c1cc(CNCc2cc(F)c(F)c(F)c2)c(O)c2c1C[C@H]1C[C@H]3C(N(C)C)C(O)=C(C(N)=O)C(=O)[C@@]3(O)C(O)=C1C2=O (stereo partly shown) [Compound 77] | > 32 µg/mL | – |
| CN(C)c1cc(CNCc2ccc(C#N)cc2)c(O)c2c1C[C@H]1C[C@H]3C(N(C)C)C(O)=C(C(N)=O)C(=O)[C@@]3(O)C(O)=C1C2=O (stereo partly shown) [Compound 78] | 32 µg/mL (≈ 53.2 µM) | – |
| CN(C)c1cc(CNC(CF)CF)c(O)c2c1C[C@H]1C[C@H]3[C@H](N(C)C)C(O)=C(C(N)=O)C(=O)[C@@]3(O)C(O)=C1C2=O [Compound 79] | – | 32 µg/mL (≈ 56.7 µM) |
| CN(C)c1cc(CN2CCOCC2)c(O)c2c1C[C@H]1C[C@H]3[C@H](N(C)C)C(O)=C(C(N)=O)C(=O)[C@@]3(O)C(O)=C1C2=O [Compound 80] | 16 µg/mL (≈ 28.7 µM) | – |
| CC(CC(F)(F)F)NCc1cc(N(C)C)c2c(c1O)C(=O)C1=C(O)[C@]3(O)C(=O)C(C(N)=O)=C(O)[C@@H](N(C)C)[C@@H]3C[C@@H]1C2 (stereo partly shown) [Compound 81] | 32 µg/mL (≈ 53.6 µM) | – |
| CN(C)c1cc(CNc2ccccc2)c(O)c2c1C[C@H]1C[C@H]3[C@H](N(C)C)C(O)=C(C(N)=O)C(=O)[C@@]3(O)C(O)=C1C2=O [Compound 82] | > 32 µg/mL | – |
| CN(C)c1cc(CN2CCCC2)c(O)c2c1C[C@H]1C[C@H]3C(N(C)C)C(O)=C(C(N)=O)C(=O)[C@@]3(O)C(O)=C1C2=O (stereo partly shown) [Compound 83] | 32 µg/mL (≈ 59.2 µM) | – |
